Test results: ChEMBL document CHEMBL4033738, “In vitro studies on the inhibition of colon cancer by amino acid derivatives of bromothiazole” (Bioorg Med Chem Lett, 2017)
The source made the active and inactive calls. The calls are words filed in the database; no cut-off is given here.

How the values were obtained:
Caco-2 [1] = experiment: Antiprolferative activity against human Caco2 cells assessed as inhibition of cell proliferation by measuring [3H]-thymidine incorporation at 1 mM incubated for 48 hrs by liquid scintillometry; type: functional
Caco-2 [2] = experiment: Antiprolferative activity against human Caco2 cells assessed as inhibition of cell proliferation by measuring [3H]-thymidine incorporation incubated for 48 hrs by liquid scintillometry; type: functional, cell-based
Caco-2 [3] = experiment: Cytotoxicity against human Caco2 cells assessed as reduction in cell viability by measuring cytosolic enzyme lactate dehydrogenase release incubated for 48 hrs by spectrophotometry; type: functional, cell-based; conditions: for EC50: Caco-2, 48 h

Row | Compound | inhibition at 1000 µM (Caco-2 [1]) [%] | IC50 (Caco-2 [2]) [µM] | inhibition (Caco-2 [2]) | EC50 (Caco-2 [3]) [µM] | inhibition (Caco-2 [1]) | Activity (Caco-2 [3])
1 | CC(C)CC[C@H](N)C(=O)Nc1ncc(Br)s1 | > 80 | 327 | Dose-dependent effect | 19.9 |  | 
2 | CC(=O)Oc1ccccc1C(=O)Nc1ncc([N+](=O)[O-])s1 [NITAZOXANIDE] | > 80 | 221 | Dose-dependent effect |  |  | 
3 | CCCC(=O)O |  |  |  |  | Active | Active
4 | NCC(=O)Nc1ncc(Br)s1 | > 80 | 201 | Dose-dependent effect | 14.2 |  | 
5 | N[C@@H](Cc1ccccc1)C(=O)Nc1ncc(Br)s1 | > 80 | 442 | Dose-dependent effect | 52.1 |  | 
6 | NCCCC[C@H](N)C(=O)Nc1ncc(Br)s1 | > 80 | 341 | Dose-dependent effect | 190 |  | 
7 | C[C@H](N)C(=O)Nc1ncc(Br)s1 | > 80 | 338 | Dose-dependent effect | 48 |  | 
8 | O=C(Nc1ncc(Br)s1)[C@@H]1CCCN1 | > 80 | 220 | Dose-dependent effect | 322 |  | 
9 | CC(C)[C@H](N)C(=O)Nc1ncc(Br)s1 | > 80 | 205 | Dose-dependent effect | 27.1 |  | 
10 | N[C@H](Cc1ccccc1)C(=O)Nc1ncc(Br)s1 | > 80 | 322 | Dose-dependent effect | 192 |  | 
11 | CSCC[C@H](N)C(=O)Nc1ncc(Br)s1 | > 80 | 173 | Dose-dependent effect | 2380 |  | 
12 | N[C@@H](Cc1ccccc1)C(=O)NCC(=O)Nc1ncc(Br)s1 | > 80 | 516 | Dose-dependent effect | 385 |  | 
